{"source": "DBAASP", "assay_in_all_cases": "≥ marks a high value that may be exact or a test limit, other limits are often not marked, values filed in µg/mL are converted to µM", "key": {"[1]": {"tested_on": "Staphylococcus aureus ATCC 25923"}, "[2]": {"tested_on": "Staphylococcus epidermidis ATCC 12228"}, "[3]": {"tested_on": "Salmonella enterica serovar Typhimurium"}, "[4]": {"tested_on": "Escherichia coli ATCC 35218"}, "[5]": {"tested_on": "Staphylococcus aureus ATCC 33591"}, "[6]": {"tested_on": "Klebsiella pneumoniae ATCC 13866"}, "[7]": {"tested_on": "Pseudomonas aeruginosa ATCC 27853"}, "[8]": {"tested_on": "Staphylococcus aureus ATCC 29213"}, "[9]": {"tested_on": "Escherichia coli ATCC 11229"}, "[10]": {"tested_on": "Micrococcus luteus ATCC 49732"}, "[11]": {"tested_on": "Aeromonas hydrophila ATCC 35654"}, "[12]": {"tested_on": "Escherichia coli ATCC 25922"}, "[13]": {"tested_on": "Trichophyton mentagrophytes DSM 4870"}, "[14]": {"tested_on": "Aspergillus niger PMC 7101"}, "[15]": {"tested_on": "Aspergillus terreus PMC 7201"}, "[16]": {"tested_on": "Candida albicans ATCC 24433"}, "[17]": {"tested_on": "Cryptococcus neoformans DSM 11759"}, "Candida krusei PMC 0624": {"tested_on": "Candida krusei PMC 0624"}, "[18]": {"tested_on": "Candida parapsilosis DSM 11224"}, "[19]": {"tested_on": "Candida albicans ATCC 10231"}, "[20]": {"tested_on": "Corynebacterium jeikeium ATCC BAA-949"}, "[21]": {"tested_on": "Aspergillus brasiliensis DSM 1988"}, "[22]": {"tested_on": "Microsporum canis DSM 10708"}, "[23]": {"tested_on": "Candida glabrata PMC 0805"}, "Candida krusei PMC 0610": {"tested_on": "Candida krusei PMC 0610"}, "[24]": {"tested_on": "Trichophyton mentagrophytes PMC 6530"}, "[25]": {"tested_on": "Trichophyton mentagrophytes PMC 6528"}, "[26]": {"tested_on": "Candida tropicalis DSM 11953"}, "[27]": {"tested_on": "Trichophyton mentagrophytes PMC 6529"}, "[28]": {"tested_on": "Candida parapsilosis PMC 0711"}, "[29]": {"tested_on": "Enterococcus faecalis PCM 2673"}, "[30]": {"tested_on": "Pseudomonas aeruginosa ATCC 9027"}, "[31]": {"tested_on": "Pseudomonas aeruginosa E411-17"}, "[32]": {"tested_on": "Staphylococcus aureus M838-17"}, "[33]": {"tested_on": "Klebsiella pneumoniae E406-17"}, "[34]": {"tested_on": "Xanthomonas oryzae pv. oryzae MAFF 311018"}, "[35]": {"tested_on": "Pyricularia oryzae MAFF 101511"}, "[36]": {"tested_on": "Clavibacter michiganensis subsp. michiganensis MAFF 301254"}, "Escherichia coli D31": {"tested_on": "Escherichia coli D31"}, "[37]": {"tested_on": "Staphylococcus epidermidis ATCC 14990"}, "[38]": {"tested_on": "Pseudomonas aeruginosa ATCC 10145"}, "[39]": {"tested_on": "Salmonella enterica subsp. enterica serovar Typhimurium ATCC 700931"}, "[40]": {"tested_on": "Staphylococcus aureus ATCC 27660"}}, "note": "“And” between values parts separate entries of the source, which are not always exact repeats. Identical values can stand only once.", "data": [{"smiles": "CC[C@H](C)[C@H](NC(=O)[C@H](C)NC(=O)[C@H](CCCN=C(N)N)NC(=O)[C@H](CC(C)C)NC(=O)[C@@H](NC(=O)[C@H](CO)NC(=O)CN)C(C)C)C(=O)N[C@@H](CCSC)C(=O)N[C@@H](CCCN=C(N)N)C(=O)N[C@@H](CCSC)C(=O)N[C@@H](Cc1ccccc1)C(=O)N[C@@H](C)C(=O)N[C@@H](CCCCN)C(=O)N[C@@H](CC(C)C)C(=O)N[C@@H](CCSC)C(=O)NCC(=O)O", "note": "[GSVLRAIMRMFAKLMG]", "values": [{"measurement": "MIC", "setting": "[1]", "result": 35.9, "unit": "µM"}, {"measurement": "MIC", "setting": "[2]", "result": 4.49, "unit": "µM"}, {"measurement": "MIC", "setting": "[3]", "result": "≥ 35.9", "unit": "µM"}, {"measurement": "MIC", "setting": "[4]", "result": "≥ 35.9", "unit": "µM"}, {"measurement": "MIC", "setting": "[5]", "result": 4.49, "unit": "µM"}, {"measurement": "MIC", "setting": "[6]", "result": "≥ 35.9", "unit": "µM"}, {"measurement": "MIC", "setting": "[7]", "result": 18, "unit": "µM"}, {"measurement": "MIC", "setting": "[8]", "result": 35.9, "unit": "µM"}, {"measurement": "MIC", "setting": "[9]", "result": "≥ 35.9", "unit": "µM"}]}, {"smiles": "CC[C@H](C)[C@H](NC(=O)[C@H](CC(C)C)NC(=O)[C@H](CCC(N)=O)NC(=O)[C@@H](NC(=O)[C@H](CCCCN)NC(=O)[C@@H](NC(=O)[C@H](CS)NC(=O)[C@H](CCCCN)NC(=O)[C@@H](N)CCCN=C(N)N)C(C)C)C(C)C)C(=O)N[C@@H](CCCCN)C(=O)N[C@@H](CC(N)=O)C(=O)NCC(=O)N[C@@H](CCCN=C(N)N)C(=O)N[C@@H](CCC(N)=O)C(=O)N[C@H](C(=O)N[C@H](C(=O)N[C@@H](C)C(=O)N[C@@H](Cc1ccccc1)C(N)=O)[C@@H](C)O)C(C)C", "note": "[RKCVKVQLIKNGRQVTAF]", "values": [{"measurement": "MIC", "setting": "[1]", "result": "> 20", "unit": "µM"}, {"measurement": "MIC", "setting": "[10]", "result": 7.2, "unit": "µM"}, {"measurement": "MIC", "setting": "[11]", "result": 20, "unit": "µM"}, {"measurement": "MIC", "setting": "[12]", "result": 12, "unit": "µM"}]}, {"smiles": "CC[C@H](C)[C@H](NC(=O)CNC(=O)[C@H](CC(N)=O)NC(=O)[C@H](CC(C)C)NC(=O)[C@@H](NC(=O)[C@H](CCCN=C(N)N)NC(=O)CNC(=O)[C@@H](NC(=O)[C@@H](NC(=O)[C@@H]1CCCN1C(=O)[C@H](Cc1ccccc1)NC(=O)[C@@H](N)Cc1ccccc1)C(C)C)[C@@H](C)CC)[C@@H](C)CC)C(=O)N[C@@H](CC(C)C)C(N)=O", "note": "[FFPVIGRILNGIL]", "values": [{"measurement": "MIC", "setting": "[13]", "result": 16, "unit": "µM"}, {"measurement": "MIC", "setting": "[14]", "result": "≥ 128", "unit": "µM"}, {"measurement": "MIC", "setting": "[15]", "result": "≥ 128", "unit": "µM"}, {"measurement": "MIC", "setting": "[16]", "result": "≥ 32", "unit": "µM"}, {"measurement": "MIC", "setting": "[17]", "result": "≥ 32", "unit": "µM"}, {"measurement": "MIC", "setting": "Candida krusei PMC 0624", "result": "≥ 32", "unit": "µM"}, {"measurement": "MIC", "setting": "[18]", "result": "≥ 128", "unit": "µM"}, {"measurement": "MIC", "setting": "[19]", "result": "16 µM and 21.3 µM"}, {"measurement": "MIC", "setting": "[20]", "result": 16, "unit": "µM"}, {"measurement": "MIC", "setting": "[21]", "result": "≥ 128", "unit": "µM"}, {"measurement": "MIC", "setting": "[22]", "result": "≥ 64", "unit": "µM"}, {"measurement": "MIC", "setting": "[23]", "result": "≥ 64", "unit": "µM"}, {"measurement": "MIC", "setting": "Candida krusei PMC 0610", "result": "≥ 128", "unit": "µM"}, {"measurement": "MIC", "setting": "[24]", "result": "≥ 64", "unit": "µM"}, {"measurement": "MIC", "setting": "[25]", "result": "≥ 32", "unit": "µM"}, {"measurement": "MIC", "setting": "[26]", "result": 16, "unit": "µM"}, {"measurement": "MIC", "setting": "[27]", "result": "≥ 32", "unit": "µM"}, {"measurement": "MIC", "setting": "[28]", "result": "≥ 128", "unit": "µM"}]}, {"smiles": "CC[C@H](C)[C@H](NC(=O)[C@H](CCCCN)NC(=O)[C@H](CCCCN)NC(=O)[C@@H](NC(=O)[C@@H](NC(=O)[C@H](CC(=O)O)NC(=O)[C@H](Cc1ccccc1)NC(=O)[C@H](CC(C)C)NC(=O)CN)[C@@H](C)CC)[C@@H](C)CC)C(=O)N[C@@H](C)C(=O)N[C@@H](CCC(=O)O)C(=O)N[C@@H](C)C(=O)N[C@@H](Cc1ccccc1)C(N)=O", "note": "[GLFDIIKKIAEAF]", "values": [{"measurement": "MIC", "setting": "[1]", "result": 21.8, "unit": "µM"}, {"measurement": "MIC", "setting": "[19]", "result": 21.8, "unit": "µM"}, {"measurement": "MIC", "setting": "[29]", "result": "≥ 43.7", "unit": "µM"}, {"measurement": "MIC", "setting": "[30]", "result": "> 350", "unit": "µM"}, {"measurement": "MIC", "setting": "[12]", "result": 43.7, "unit": "µM"}]}, {"smiles": "C[C@H](NC(=O)[C@H](Cc1c[nH]c2ccccc12)NC(=O)[C@H](Cc1c[nH]c2ccccc12)NC(=O)[C@H](Cc1c[nH]c2ccccc12)NC(=O)[C@H](Cc1c[nH]c2ccccc12)NC(=O)[C@H](CCCN=C(N)N)NC(=O)[C@H](CCCN=C(N)N)NC(=O)[C@@H](N)CCCN=C(N)N)C(N)=O", "note": "[RRRWWWWA]", "values": [{"measurement": "MIC", "setting": "[31]", "result": 25, "unit": "µM"}, {"measurement": "MIC", "setting": "[32]", "result": 12.5, "unit": "µM"}, {"measurement": "MIC", "setting": "[33]", "result": "≥ 50", "unit": "µM"}]}, {"smiles": "CC[C@H](C)[C@H](NC(=O)[C@@H](N)Cc1ccccc1)C(=O)N[C@@H](Cc1ccccc1)C(=O)N[C@@H](CC(C)C)C(=O)N1CCC[C@H]1C(=O)N[C@H](C(=O)N[C@@H](Cc1ccccc1)C(=O)N[C@@H](CCCN=C(N)N)C(=O)N[C@@H](CCCN=C(N)N)C(=O)N1CCC[C@H]1C(=O)N[C@H](C(=O)N[C@@H](CO)C(N)=O)C(C)C)[C@@H](C)CC", "note": "[FIFLPIFRRPVS]", "values": [{"measurement": "MIC", "setting": "[34]", "result": "≥ 85.8", "unit": "µM"}, {"measurement": "MIC", "setting": "[35]", "result": "≥ 85.8", "unit": "µM"}, {"measurement": "MIC", "setting": "[36]", "result": 10.7, "unit": "µM"}]}, {"smiles": "CC[C@H](C)[C@H](NC(=O)[C@H](C)N)C(=O)N[C@@H](Cc1c[nH]c2ccccc12)C(=O)N[C@@H](CCCCN)C(=O)N[C@@H](CCCCN)C(=O)N[C@H](C(=O)N[C@H](C(=O)N[C@@H](CCCCN)C(=O)N[C@@H](CCCCN)C(=O)N[C@H](C(=O)N[C@H](C(=O)N[C@@H](CCCCN)C(=O)N[C@@H](CO)C(=O)N[C@@H](C)C(=O)N[C@@H](CCCCN)C(=O)N[C@@H](CCCCN)C(=O)N[C@H](C(=O)NCC(=O)O)[C@@H](C)CC)[C@@H](C)CC)[C@@H](C)CC)[C@@H](C)CC)[C@@H](C)CC", "note": "[AIWKKIIKKIIKSAKKIG]", "values": [{"measurement": "MIC", "setting": "Escherichia coli D31", "result": 0.94, "unit": "µM"}, {"measurement": "MIC", "setting": "[37]", "result": 0.94, "unit": "µM"}, {"measurement": "MIC", "setting": "[38]", "result": 1.88, "unit": "µM"}, {"measurement": "MIC", "setting": "[39]", "result": 1.88, "unit": "µM"}, {"measurement": "MIC", "setting": "[40]", "result": 1.88, "unit": "µM"}]}]}
